Consider 16 molecules from patent EP4700021A1, “NOVEL COMPOUND AND PHARMACEUTICAL COMPOSITION COMPRISING SAME AS ACTIVE INGREDIENT” (Sapiensbio Inc., priority 2023, dated 2025).

One assay has as its system F-actin. Description: inhibition of F-actin formation (rhodamine phalloidin staining) in TGF-β1-treated MRC-5 cells. The assay is classed as cell-based, human. Particulars: compound 10 µM, TGF-β1 (5 ng/mL), 72 hours, FIG. 1. How it is done: In this experimental example, 2 hours after human lung-derived fibroblasts (MRC-5 cells) were treated with Compound 41 (10 µM) or Compound 51 (10 µM) according to the present invention, or DMSO, dissolved in 0.5% FBS-containing serum, TGF-β1 (5 ng/mL) was treated to induce fibrosis. After 72 hours, the cells were immobilized with a 2% paraformaldehyde solution for 10 minutes, and to impart cell membrane permeability, a 0.1% Triton X-100 solution was treated for 10 minutes, and a 1% bovine serum albumin (BSA) solution was treated to prevent non-specific binding. For immunostaining, anti-GAPDH (BIO-RAD) was first treated as a primary antibody, and Alexa Fluor™ Plus 488 for GAPDH labeling was used as a secondary antibody. For staining of an actin cytoskeleton, particularly, F-actin, rhodamine phalloidin (Cytoskeleton) was used to confirm the increase and decrease in F-actin caused by the compounds. The immunohistochemical experimental results were confirmed with a STELLARIS 5 confocal microscope (Leica), F-actin stained with rhodamine phalloidin was standardized with GAPDH labeled with Alexa Fluor™ Plus 488 for quantification.

The test system of the next assay is α-SMA. Description: in vitro α-SMA expression inhibition (immunostaining, confocal microscopy) in TGF-β1-treated MRC-5 cells. The assay is classed as cell-based, human. As to conditions: Homo sapiens, TGF-β1 (5 ng/mL), 72 hours, standardized using GAPDH. An excerpt: When scars are generated in tissue, fibroblasts undergo fibroblast-to-myofibroblast transition (FMT), and the resulting myofibroblasts produce the extracellular matrix, leading to tissue fibrosis. α-SMA is a representative biomarker of myofibroblasts, and its expression greatly increases as FMT progresses. Accordingly, through the evaluation of α-SMA expression inhibitory activity, the efficacy of the compounds in inhibiting fibrosis may be evaluated. Therefore, the inhibitory activity of the compounds of the present invention on α-SMA expression was evaluated in cells. To more accurately evaluate the inhibition of α-SMA expression, IC50 values were determined by treating human lung-derived fibroblasts (MRC-5 cells) with the compounds of the present invention in a concentration-dependent manner.
Specifically, 2 hours after the MRC-5 cells were treated with DMSO or compounds dissolved in serum containing 0.5% fetal bovine serum (FBS) in a concentration-dependent manner, fibrosis was induced by treatment with TGF-β1 (5 ng/mL). After 72 hours, the cells were immobilized with a 2% paraformaldehyde solution for 10 minutes, and to impart cell membrane permeability, a 0.1% Triton X-100 solution was treated for 10 minutes, and a 1% bovine serum albumin (BSA) solution was treated to prevent non-specific binding. For immunostaining, anti-GAPDH (BIO-RAD) was first treated as a primary antibody, and Alexa Fluor™ Plus 555 for GAPDH labeling was used as a secondary antibody. For α-SMA staining, an FITC fluorescence-tagged α-SMA primary antibody was used, and thus the increase and decrease in α-SMA caused by the compounds were evaluated. The immunohistochemical experimental results were confirmed with a STELLARIS 5 confocal microscope (Leica), and FITC-stained α-SMA was standardized using GAPDH labeled with Alexa FluorTM Plus 555 for quantification. The IC50 of the compounds according to the present invention was calculated through statistical analysis (linear mixed effects model). […]

Assay [1] relates to ACTA2 mRNA. As to the kind of experiment: qRT-PCR of ACTA2 mRNA in TGF-β1-treated human hepatic stellate cells. It counts as cell-based. Particulars: human hepatic stellate cells (HHSCs); 10 and 50 µM; TGF-β1 (5 ng/mL); 48 hours; FIG. 2. How it is done: Here, to confirm the degree of fibrosis, ACTA2 or COL1A1 mRNA that can express α-SMA or collagen type 1 was used as an indicator. α-SMA is a marker of activated myofibroblasts, which are the main effector cells of fibrosis, and myofibroblasts with increased α-SMA expression are known to cause fibrosis by producing a fibrotic protein such as COL1A1.
Specifically, human hepatic stellate cells (HHSCs) were seeded, and cultured for 24 hours under a nutrient-deficient condition for effective cell activation. Afterward, the cells were treated with the compounds (Compounds 51 and 41) according to the present invention, together with TGF-β1 (5 ng/mL) to induce fibrosis, at 10 and 50 µM for 48 hours, respectively, and then cultured to extract RNA therefrom. The RNA was used to perform qRT-PCR. From the experimental results, the mRNA expression levels of ACTA2 and COL1A1 were confirmed, thereby verifying the therapeutic effects of the compounds.
(Real-time PCR tracks product formation cycle by cycle.)

The test system of assay [2] is ACTA2 mRNA. As to the kind of experiment: qRT-PCR of ACTA2 mRNA in TGF-β1-treated human renal fibroblasts. The assay is classed as cell-based. Particulars: human renal fibroblasts (HRFs); 10 and 50 µM; TGF-β1 (5 ng/mL); 48 hours; FIG. 3. How it is done: (§1) Here, to confirm the degree of fibrosis, ACTA2 or COL1A1 mRNA, which can express α-SMA or collagen type 1, was used as an indicator. α-SMA is a marker for activated myofibroblasts, which are the main effector cells of fibrosis, and myofibroblasts with increased α-SMA expression are known to cause fibrosis by producing a fibrotic protein such as collagen type 1.
(§2) Specifically, human renal fibroblasts (HRFs) were seeded, and cultured for 24 hours under a nutrient-deficient condition for effective cell activation. Afterward, the cells were treated with the compounds (Compounds 51 and 41) according to the present invention, together with TGF-β1 (5 ng/mL) to induce fibrosis, at 10 and 50 µM for 48 hours, respectively, and then cultured to extract RNA therefrom. The RNA was used to perform qRT-PCR. From the experimental results, the mRNA expression levels of ACTA2 and COL1A1 were confirmed, thereby verifying the therapeutic effects of the compounds.

A further assay relates to COL1A1 mRNA. As to the kind of experiment: qRT-PCR of COL1A1 mRNA in TGF-β1-treated human renal fibroblasts. It counts as cell-based. Particulars: human renal fibroblasts (HRFs); 10 and 50 µM; TGF-β1 (5 ng/mL); 48 hours; FIG. 3. How it is done:
as §1, §2

In general, IC50 refers to the midpoint of a concentration-inhibition curve. A high value points to weaker potency in that assay.

As to `CC(C)CN[C@H]1CCN(C(=O)N2CCN(Cc3ccccn3)c3ccccc32)C1.O=C(O)/C=C/C(=O)O` [Compound 51, (S)-(3-(isobutylamino)pyrrolidin-1-yl)(4-(pyridin-2-ylmethyl)-3,4-dihydroquinoxaline-1(2H)-yl)methanone fumaric acid salt], in the assay on F-actin, the “intracellular F-actin formation” value is reported as “reduced to a level similar to that of the group not treated with TGF-β1”. In the assay with α-SMA, this molecule yielded an IC50 of less than 1 µM. Besides, the “ACTA2 mRNA expression” value in the assay on ACTA2 mRNA [1] and with ACTA2 mRNA [2] was “effectively inhibit the mRNA expression” each time. The “COL1A1 mRNA expression” value with COL1A1 mRNA is “effectively inhibit the mRNA expression”.

For the molecule `N[C@H]1CCN(C(=O)N2CCN(Cc3ccc(F)cc3)c3ccccc32)C1.O=C(O)/C=C/C(=O)O` [Compound 41, (S)-(3-aminopyrrolidin-1-yl)(4-(4-fluorobenzyl)-3,4-dihydroquinoxaline-1(2H)-yl)methanone fumaric acid salt], in the assay with F-actin, the “intracellular F-actin formation” value is on record as “reduced to a level similar to that of the group not treated with TGF-β1”. Besides, the IC50 in the assay on α-SMA was less than 1 µM. Besides, the “ACTA2 mRNA expression” value in the assay on ACTA2 mRNA [1] and in the assay with ACTA2 mRNA [2] was “effectively inhibit the mRNA expression” throughout. In addition, in the assay with COL1A1 mRNA, the “COL1A1 mRNA expression” value is “effectively inhibit the mRNA expression”.

For the molecule `CC(C)N[C@H]1CCN(C(=O)N2CCN(Cc3ccc(F)cc3)c3ccccc32)C1` [Compound 42, (S)-(4-(4-fluorobenzyl)-3,4-dihydroquinoxaline-1(2H)-yl)(3-(isopropylamino)pyrrolidin-1-yl)methanone], the IC50 with α-SMA was 1 to 10 µM.

For the molecule `CC(C)CN1CC[C@H](NC(=O)N2CCN(c3cnccn3)c3ccccc32)C1` [Compound 22, (S)-N-(1-isobutylpyrrolidin-3-yl)-4-(pyrazin-2-yl)-3,4-dihydroquinoxaline-1(2H)-carboxamide], the IC50 in the assay with α-SMA is no more than 30 µM.

`CN1CCC(CNC(=O)N2CCN(Cc3ccc(F)cn3)c3ccccc32)CC1` [Compound 67, 4-((5-fluoropyridin-2-yl)methyl)-N-((1-methylpiperidin-4-yl)methyl)-3,4-dihydroquinoxaline-1(2H)-carboxamide] yielded an IC50 in the assay on α-SMA of no more than 30 µM.

Consider `N[C@H]1CCN(C(=O)N2CCN(c3ccccn3)c3ccccc32)C1` [Compound 12, (S)-(3-aminopyrrolidin-1-yl)(4-(pyridin-2-yl)-3,4-dihydroquinoxaline-1(2H)-yl)methanone], for which the IC50 in the assay with α-SMA is no more than 30 µM.

Molecule `O=C(NC[C@@H]1CCOC1)N1CCN(Cc2ccccn2)c2ccccc21` [Compound 59, (S)-4-(pyridin-2-ylmethyl)-N-((tetrahydrofuran-3-yl)methyl)-3,4-dihydroquinoxaline-1(2H)-carboxamide] gave an IC50 with α-SMA of less than 1 µM.

Take `CC(C)CN1CCC(NC(=O)N2CCN(c3cnccn3)c3ccccc32)CC1` [Compound 27, N-(1-isobutylpiperidin-4-yl)-4-(pyrazin-2-yl)-3,4-dihydroquinoxaline-1(2H)-carboxamide]: the IC50 with α-SMA was in the range of 10 to 30 µM.

Molecule `O=C(NC[C@H]1CCOC1)N1CCN(Cc2ccccn2)c2ccccc21` [Compound 60, (R)-4-(pyridin-2-ylmethyl)-N-((tetrahydrofuran-3-yl)methyl)-3,4-dihydroquinoxaline-1(2H)-carboxamide] displayed an IC50 with α-SMA of 10 to 30 µM.

On to `CN1CC[C@@H](NC(=O)N2CCN(Cc3ccccc3)c3ccccc32)C1` [Compound 34, (R)-4-benzyl-N-(1-methylpyrrolidin-3-yl)-3,4-dihydroquinoxaline-1(2H)-carboxamide], for which the IC50 in the assay with α-SMA is 1 to 10 µM.

In turn, `O=C(NCC1CC1)N1CCN(c2ccc(F)cc2)c2cc(F)ccc21` [Compound 3, N-(cyclopropylmethyl)-6-fluoro-4-(4-fluorophenyl)-3,4-dihydroquinoxaline-1(2H)-carboxamide] gave an IC50 with α-SMA of 1 to 10 µM.

`CN(C)[C@H]1CCN(C(=O)N2CCN(Cc3ccccn3)c3ccccc32)C1` [Compound 46, (S)-(3-(dimethylamino)pyrrolidin-1-yl)(4-(pyridin-2-ylmethyl)-3,4-dihydroquinoxaline-1(2H)-yl)methanone] gave an IC50 in the assay with α-SMA of no more than 30 µM.

For `O=C(N1CCNCC1)N1CCN(c2ccccc2Cl)c2ccccc21` [Compound 10, (4-(2-chlorophenyl)-3,4-dihydroquinoxaline-1(2H)-yl)(piperazin-1-yl)methanone], the IC50 with α-SMA was less than 1 µM.

In the assay with α-SMA, `CN1CCC(COC(=O)N2CCN(Cc3ccccn3)c3ccccc32)CC1` [Compound 65, (1-methylpiperidin-4-yl)methyl-4-(pyridin-2-ylmethyl)-3,4-dihydroquinoxaline-1(2H)-carboxylate] showed an IC50 of 10 to 30 µM.

In the assay with α-SMA, `O=C(N1CCCCC1)N1CCN(C2CCCCC2)c2ccccc21` [Compound 71] registered an IC50 of 1 to 10 µM.

In the assay with α-SMA, `O=C(NCC1CCOC1)N1CCN(Cc2ccccn2)c2ccccc21` (stereo not drawn) [Compound 58, 4-(pyridin-2-ylmethyl)-N-((tetrahydrofuran-3-yl)methyl)-3,4-dihydroquinoxaline-1(2H)-carboxamide] displayed an IC50 of less than 1 µM.
